Results from patent US20060206946A1, “Method of disrupting heme transport in nematodes and of modelling and evaluating eukaryotic heme transport” (priority 2005, published 2006).

How the values were obtained:
C. elegans = type: in vivo, Caenorhabditis elegans; conditions: pulse 40 μM ZnMP 3 h
Experimental: (C) Fluorescent metabolic labeling of worms with either 40 μM hemin (images 1, 4) or 40 μM ZnMP/4 μM hemin (images 2, 3, 5, 6) for 3 h followed by confocal microscopy with a 546 laser (images 1-3) and DIC optics (images 4-6). Arrowheads indicate ZnMP fluorescence accumulation within intestinal cells and developing embryos. For clarity, the boxed image in 2 is magnified in images 3 and 6. (Bar=100 μm).
(D) Worms were incubated with 40 μM ZnMP/4 μM hemin for 16 h followed by a chase with 40 μM hemin. Worms were analyzed by epifluorescence microscopy (TRITC channel) and DIC optics. Experiments were performed either in the absence (images 1-4) or presence (images 5-8) of NaN3 during the chase periods to test for the non-specific loss of ZnMP fluorescence. Photomicrograph 4 is shown at a lower power to depict the complete loss of ZnMP fluorescence. (Bar=100 μm). For (C) and (D), four separate experiments were performed with a minimum of 50 worms per data point per experiment. The data are representative for >90% of worms analyzed.
Because of the nature of the growth curve, we reasoned that heme homeostatis in C. elegans may be regulated in accordance with organismic needs and metabolic demands. […]
Pulse-Chase Analysis. […] At timed intervals, aliquots of worms were removed into the appropriate medium containing 10 mM NaN3 mounted on a slide and immediately analyzed with a 543 He/Ne laser on a Zeiss 410 confocal microscope, or with a Peltier-cooled Retiga 1300 12-bit CCD camera fitted on to a Leica DMIRE2 autofluorescence/DIC microscope. Images were further analyzed with SIMPLEPCI v5.2 Software (Compix, Inc.). […] No loss of fluorescence was observed when labeling experiments were performed in parallel in the presence of 1 mM NaN3 during the chase period and when worms were incubated in medium without hemin. To account for background autouluorescence in C. elegans, the sensor gain of the CCD camera or the laser was set to subtract any fluorescence obtained from control worms incubated in the presence of 40 μM hemin.

[1] = tested on: C. elegans genes transcriptionally regulated by heme; test: Affymetrix C. elegans Genome Array: genes transcriptionally regulated by heme (4 and 500 μM vs 20 μM hemin); type: in vivo, Caenorhabditis elegans; conditions: low heme (4 μM)
Experimental: Worms were grown at 4 μM (low) 20 μM (optimal) and 500 μM (high) hemin in axenic CeHR medium. We chose 4 and 500 μM hemin because these heme concentrations were at either end of the worm growth spectrum, and worms at these heme concentrations show a ˜24 h growth delay compared to worms grown at 20 μM hemin. […] In order to eliminate maternal effect genes, wild-type N2 worms were grown for two synchronized generations in their respective hemin concentrations to obtain F2 worms at the […] as determined by morphological analysis of the vulva. F2 worms from all three heme conditions were harvested at the same mid-L4 stage for final RNA extraction. The RNA was extracted with Trizol and treated with RNase-free DNase to remove any contaminating DNA followed by a purification on a Qiagen RNeasy column. Each experiment was performed four independent times on four separate days to ensure proper sampling and to account for experimental variations. […]
From these genes, 58 genes were excluded because they were specific to germline, sperm or oocyte development, as determined by cross-checking with publicly available microarray databases. […]
The initial statistical analysis of the Affymetrix genome array was performed at the NIDDK microarray facility using Affymetrix MAS 5.0 Suite software. […] The standard error for ΔΔCt will be calculated by the method of Livak and Schmittgen. […]

Substance: hemin chloride
- hemin concentration of growth medium giving dramatic decline in ZnMP fluorescence (C. elegans): ≥ 100 µM
- hemin concentration of growth medium giving robust uptake of fluorescent ZnMP (C. elegans): ≤ 20 µM
- upregulation of R02E12.6 in microarrays [1]: 16 fold
